Test [1] deals with T1, ENPP-1 (Homo sapiens, UniProt P22413).
T1 construct: purchased Biovendor RD172124100
T1 sequence (P22413 1-925): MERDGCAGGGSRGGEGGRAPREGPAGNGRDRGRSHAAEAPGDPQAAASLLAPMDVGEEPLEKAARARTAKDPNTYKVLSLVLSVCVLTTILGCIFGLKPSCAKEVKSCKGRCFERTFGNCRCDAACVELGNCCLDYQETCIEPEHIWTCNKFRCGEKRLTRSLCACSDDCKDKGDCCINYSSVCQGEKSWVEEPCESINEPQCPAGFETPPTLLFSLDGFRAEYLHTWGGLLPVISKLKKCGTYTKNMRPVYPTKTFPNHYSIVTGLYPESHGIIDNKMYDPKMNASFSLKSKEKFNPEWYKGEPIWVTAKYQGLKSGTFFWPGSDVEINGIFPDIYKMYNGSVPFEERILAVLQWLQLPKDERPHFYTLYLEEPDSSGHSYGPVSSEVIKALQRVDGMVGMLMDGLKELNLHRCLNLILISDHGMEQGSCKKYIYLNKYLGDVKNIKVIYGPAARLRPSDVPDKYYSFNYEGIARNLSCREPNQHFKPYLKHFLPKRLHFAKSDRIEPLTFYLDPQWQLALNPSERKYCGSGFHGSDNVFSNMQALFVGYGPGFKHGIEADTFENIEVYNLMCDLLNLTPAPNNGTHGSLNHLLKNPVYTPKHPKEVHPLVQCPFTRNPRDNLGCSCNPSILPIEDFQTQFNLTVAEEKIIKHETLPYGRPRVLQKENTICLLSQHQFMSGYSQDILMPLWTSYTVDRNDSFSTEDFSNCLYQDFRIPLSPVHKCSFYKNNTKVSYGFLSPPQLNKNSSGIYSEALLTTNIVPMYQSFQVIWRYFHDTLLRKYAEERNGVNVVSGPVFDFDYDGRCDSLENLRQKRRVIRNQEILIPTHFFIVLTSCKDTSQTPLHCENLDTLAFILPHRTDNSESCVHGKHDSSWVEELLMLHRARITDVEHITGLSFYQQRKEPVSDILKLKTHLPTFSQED
Briefly: ENPP-1 enzyme assay with pNP-TMP substrate. In kind it is biochemical. Particulars: 12.5 ng ENPP-1, 720 μM substrate pNP-TMP, pH 9.0, 37° C., 60 minutes, absorbance 405 nm; average IC50. Here is the method:
In order to measure the ENPP-1 inhibitory activity of the compounds according to the present disclosure, the following tests were performed.
ENPP-1 hydrolyzes a variety of substrates, including phosphodiester bonds of nucleotides and nucleotide sugars and pyrophosphate bonds of nucleotides and nucleotide sugars. p-Nitrophenyl 5′-thymidine monophosphate (p-Nph-5′-TMP) is an artificial substrate for 5′-adenosine monophosphate (AMP), which is hydrolyzed by the human recombinant ENPP-1 enzyme. In the above reaction, ENPP-1 enzymatic activity is monitored through the formation of yellow p-nitrophenolate, which absorbs at 405 nm.
First, the reaction mixture contains 100 mM Tris-HCl (pH 9.0), 150 mM NaCl, […], and 1% DMSO. Serially diluted ENPP-1 inhibitors (test compound concentrations ranging from 10 μM to 0.5 nM) are reacted with 12.5 ng of ENPP-1 (Biovendor, catalog number RD172124100) and 720 μM substrate pNP-TMP at 37° C. for 60 minutes. All assays include a DMSO control without ENPP-1 inhibitor that gives maximum absorbance.
After 60 minutes of this reaction, the […] is measured using an Epoch™ Microplate Spectrophotometer (BioTek Instruments Inc.). Inhibition (%) is calculated using the following formula: Sample OD405 nm/Max OD405 nm×100%. % residual ENPP-1 enzyme activity versus IC50 values for ENPP-1 inhibitor concentrations were determined by fitting inhibition curves using the 4-parameter method of GraphPad Prism® software [GraphPad version 9.3.1 for Windows, GraphPad Software, La Jolla California USA, www.graphpad.com].

Test [2] has as its target T1, ENPP-1. Briefly: ENPP-1 enzyme assay with cGAMP substrate. Type of test: biochemical. Particulars: 200 pM ENPP-1, 10 μM substrate 2′3′-cGAMP, pH 7.4, 37° C., 30 minutes, Transcreener AMP2/GMP2 kit; average IC50. As for the experimental part:
2′3′-cGAMP is a natural substrate specifically hydrolyzed by ENPP-1, and produces 5′-adenosine monophosphate (AMP) and 5′-guanosine monophosphate (GMP). AMP and GMP produced from the reaction are monitored for ENPP-1 enzyme activity through an AMP^2/GMP^2 ENPP-1 Assay kit (Bellbrook Labs, catalog number 3015).
First, the reaction mixture contains 25 mM Tris-HCl (pH 7.4), 5 mM MgCl2, 0.01% Brij-35, and 1% DMSO. Serially diluted ENPP-1 inhibitors (test compound concentrations ranging from 10 μM to 0.5 nM) are reacted with 200 pM ENPP-1 (Biovendor, catalog number RD172124100) and 10 μM substrate 2′3′-cGAMP at 37° C. for 30 minutes. All assays include a DMSO control without ENPP-1 inhibitor that provides maximal AMP and GMP production. After 30 minutes of this reaction, AMP and GMP production is detected as a measure of ENPP-1 enzymatic activity using the Transcreener® AMP^2/GMP^2 ENPP-1 Assay kit. The detection reagent is a reagent containing 16 nM AMP^2/GMP^2 Antibody-Tb, 25 mM Tris-HCl and 60.1 nM AMP/GMP HiLyte647 Tracer, which is added by 5 μl, mixed well, and incubated at 25° C. for 2 hours.
The […] signal is measured using a SPARK Cyto plate reader (Tecan). Inhibition (%) is calculated using the following formula: (Max 615:665 ratio-615:665 ratio)/Max 615:665 ratio×100%. % residual ENPP-1 enzyme activity versus IC50 values for ENPP-1 inhibitor concentrations were determined by fitting inhibition curves using the 4-parameter method of GraphPad Prism® software [GraphPad version 9.3.1 for Windows, GraphPad Software, La Jolla California USA, www.graphpad.com].

Each structure is given as a SMILES string.

In the case of `COc1ccc2c3cnccc3n(Cc3ccc(S(N)(=O)=O)cc3)c2c1` [Compound 52, 4-((7-methoxy-5H-pyrido[4,3-b]indol-5-yl)methyl)benzenesulfonamide], the IC50 (in general, the midpoint of a concentration-inhibition curve) was below 1000 nM at ENPP-1 [1] and 1000 to 10000 nM against ENPP-1 [2].

Regarding `COc1ccc2c3c(n(Cc4ccc(S(N)(=O)=O)cc4)c2c1)CCNC3=O` [Compound 42, 4-((7-methoxy-1-oxo-1,2,3,4-tetrahydro-5H-pyrido[4,3-b]indol-5-yl)methyl)benzene sulfonamide], the IC50 on ENPP-1 [1] and at ENPP-1 [2] was below 1000 nM in each case.

In the case of `COc1cc(C)c2c(c1)c1ncccc1n2Cc1ccc(S(N)(=O)=O)cc1` [Compound 26, 4-((8-methoxy-6-methyl-5H-pyrido[3,2-b]indol-5-yl)methyl)benzenesulfonamide], the IC50 on ENPP-1 [1] and on ENPP-1 [2] was below 1000 nM in each case.

For the compound `COc1ccc2c(c1)c1ncncc1n2Cc1ccc(S(N)(=O)=O)cc1` [Compound 51, 4-((8-methoxy-5H-pyrimido[5,4-b]indol-5-yl)methyl)benzenesulfonamide], the IC50 at ENPP-1 [1] and on ENPP-1 [2] was below 1000 nM throughout.

Regarding `CS(=N)(=O)c1ccc(Cn2c3ccccc3c3ccncc32)cc1` (centres unmarked) [Compound 1, (4-((9H-pyrido[3,4-b]indol-9-yl)methyl)phenyl)(imino)(methyl)-l6-sulfanone], the concentration for half-maximal inhibition (IC50) was below 1000 nM at ENPP-1 [1] and 1000 to 10000 nM on ENPP-1 [2].

On to `COc1ccc2c3c(n(Cc4ccc(S(N)(=O)=O)cc4)c2c1)CCCN3` [Compound 37, 4-((7-methoxy-1,2,3,4-tetrahydro-5H-pyrido[3,2-b]indol-5-yl)methyl)benzenesulfonamide], for which the IC50 was below 1000 nM against ENPP-1 [1] and above 10000 nM on ENPP-1 [2].

For the compound `NS(=O)(=O)c1ccc(Cn2c3ccc(Cl)cc3c3ncccc32)cc1` [Compound 21, 4-((8-chloro-5H-pyrido[3,2-b]indol-5-yl)methyl)benzenesulfonamide], the IC50 against ENPP-1 [1] and against ENPP-1 [2] was below 1000 nM throughout.

Take `COc1ccc2c(c1)c1c(=O)[nH]ncc1n2Cc1ccc(S(N)(=O)=O)cc1` [Compound 44, 4-((8-methoxy-1-oxo-1,2-dihydro-5H-pyridazino[4,5-b]indol-5-yl)methyl)benzene sulfonamide]: the IC50 against ENPP-1 [1] and against ENPP-1 [2] was below 1000 nM each time.

Regarding `COc1ccc2c(c1)c1ccncc1n2Cc1ccc(S(C)(=N)=O)cc1` (centres unmarked) [Compound 3, imino (4-((6-methoxy-9H-pyrido[3,4-b]indol-9-yl)methyl)phenyl)(methyl)-l6-sulfanone], the IC50 at ENPP-1 [1] and at ENPP-1 [2] was below 1000 nM each time.

For `CNS(=O)(=O)c1ccc(Cn2c3ccc(OC)cc3c3ncccc32)cc1` [Compound 7, 4-((8-methoxy-5H-pyrido[3,2-b]indol-5-yl)methyl)-N-methylbenzenesulfonamide], the IC50 against ENPP-1 [1] was 1000 to 10000 nM; on ENPP-1 [2], above 10000 nM.

For `COc1ccc2c(c1)c1ncccc1n2Cc1ccc(CP(=O)(O)O)cc1` [Compound 14, (4-((8-methoxy-5H-pyrido[3,2-b]indol-5-yl)methyl)benzyl)phosphonic acid], the IC50 against ENPP-1 [1] and at ENPP-1 [2] was below 1000 nM throughout.

Turning to `COc1cc2c3ncccc3n(Cc3ccc(S(N)(=O)=O)cc3)c2cc1F` [Compound 29, 4-((7-fluoro-8-methoxy-5H-pyrido[3,2-b]indol-5-yl)methyl)benzenesulfonamide], the IC50 against ENPP-1 [1] and against ENPP-1 [2] was below 1000 nM throughout.

Consider `COc1ccc2c(c1)c1cnccc1n2Cc1ccc(S(N)(=O)=O)cc1` [Compound 4, 4-((8-methoxy-5H-pyrido[4,3-b]indol-5-yl)methyl)benzenesulfonamide], for which the IC50 against ENPP-1 [1] and against ENPP-1 [2] was below 1000 nM in each case.

Consider `COc1ccc2c(c1)c1ncccc1n2Cc1ccc(S(C)(=N)=O)c(F)c1` (centres unmarked) [Compound 20, (2-fluoro-4-((8-methoxy-5H-pyrido[3,2-b]indol-5-yl)methyl)phenyl)(imino)(methyl)-l6-sulfanone], for which the IC50 against ENPP-1 [1] and against ENPP-1 [2] was below 1000 nM throughout.

Turning to `COc1cnc2c(c1)c1c(n2Cc2ccc(S(N)(=O)=O)cc2)CNCC1` [Compound 34, 4-((3-methoxy-5,6,7,8-tetrahydro-9H-pyrrolo[2,3-b:5,4-c′]dipyridin-9-yl)methyl)benzene sulfonamide], the 50% inhibitory concentration (IC50) against ENPP-1 [1] and against ENPP-1 [2] was above 10000 nM throughout.

As for `COc1ccc2c(c1)c1ncccc1n2Cc1ccc(P(=O)(O)O)cc1` [Compound 13, (4-((8-methoxy-5H-pyrido[3,2-b]indol-5-yl)methyl)phenyl)phosphonic acid], the half-inhibitory concentration (IC50) on ENPP-1 [1] and against ENPP-1 [2] was below 1000 nM each time.

Regarding `COc1ccc2c3ncccc3n(Cc3ccc(S(N)(=O)=O)cc3)c2c1` [Compound 53, 4-((7-methoxy-5H-pyrido[3,2-b]indol-5-yl)methyl)benzenesulfonamide], the half-inhibitory concentration (IC50) at ENPP-1 [1] and against ENPP-1 [2] was below 1000 nM throughout.

Take `COc1ccc2c(c1)c1ccncc1n2Cc1ccc(S(N)(=O)=O)cc1` [Compound 2, 4-((6-methoxy-9H-pyrido[3,4-b]indol-9-yl)methyl)benzenesulfonamide]: the IC50 at ENPP-1 [1] and at ENPP-1 [2] was below 1000 nM each time.

On to `Cc1ccc2c(c1)c1ncccc1n2Cc1ccc(S(C)(=N)=O)cc1` (centres unmarked) [Compound 23, imino(methyl) (4-((8-methyl-5H-pyrido[3,2-b]indol-5-yl)methyl)phenyl)-l6-sulfanone], for which the IC50 on ENPP-1 [1] and against ENPP-1 [2] was below 1000 nM throughout.

For the compound `COc1cc2c3ncccc3n(Cc3ccc(S(C)(=N)=O)cc3)c2cc1F` (single isomer, unassigned) [Compound 30a, (4-((7-fluoro-8-methoxy-5H-pyrido[3,2-b]indol-5-yl)methyl)phenyl)(imino)(methyl)-l6-sulfanone], the IC50 at ENPP-1 [1] and on ENPP-1 [2] was below 1000 nM throughout.

In the case of `COc1ccc2c(c1)c1ncccc1n2Cc1ccc(S(N)(=O)=O)cc1` [Compound 5, 4-((8-methoxy-5H-pyrido[3,2-b]indol-5-yl)methyl)benzenesulfonamide], the IC50 at ENPP-1 [1] and at ENPP-1 [2] was below 1000 nM throughout.

Take `COc1ccc2c(c1)c1ncccc1n2Cc1ccc(NS(N)(=O)=O)cc1` [Compound 8, N-(4-((8-methoxy-5H-pyrido[3,2-b]indol-5-yl)methyl)phenyl) sulfamide]: the IC50 at ENPP-1 [1] and on ENPP-1 [2] was below 1000 nM each time.

These data come from US20250367173A1, “ECTONUCLEOTIDE PYROPHOSPHATASE-PHOSPHODIESTERASE-1 INHIBITORS AND PHARMACEUTICAL COMPOSITIONS COMPRISING THE SAME” (LigaChem Biosciences Inc., priority 2022, published 2025).
